In general, IC50 refers to the concentration that inhibits the measured activity by half. A lower IC50 goes with greater potency in that assay.

The values that follow come from PMC6158189, “A pharmacological probe identifies cystathionine β-synthase as a new negative regulator for ferroptosis” (Cell Death & Disease, 2018).

“Also recorded” adds a separate entry of the source.

One assay concerns the target T1, hCBS (Homo sapiens, UniProt P35520).
T1 construct: GST (N); made in house; host or cells: E. coli BL21
T1 sequence (P35520 1-551): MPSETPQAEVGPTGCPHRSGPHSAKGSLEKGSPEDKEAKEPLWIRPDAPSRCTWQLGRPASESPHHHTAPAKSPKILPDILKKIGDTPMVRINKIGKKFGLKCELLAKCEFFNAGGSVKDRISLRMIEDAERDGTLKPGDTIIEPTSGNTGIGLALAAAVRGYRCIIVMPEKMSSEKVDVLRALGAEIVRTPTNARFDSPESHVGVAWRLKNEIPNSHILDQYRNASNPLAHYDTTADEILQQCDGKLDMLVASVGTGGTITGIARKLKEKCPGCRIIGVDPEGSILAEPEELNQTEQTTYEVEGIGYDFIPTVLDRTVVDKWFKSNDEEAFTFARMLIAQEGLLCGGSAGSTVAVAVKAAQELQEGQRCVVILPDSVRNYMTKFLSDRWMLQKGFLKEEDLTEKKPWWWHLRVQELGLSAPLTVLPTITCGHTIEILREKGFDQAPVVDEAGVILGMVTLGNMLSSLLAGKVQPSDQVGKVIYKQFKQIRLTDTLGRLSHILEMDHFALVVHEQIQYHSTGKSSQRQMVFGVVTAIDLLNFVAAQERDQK
Briefly: rapid dilution reversibility experiment. Type of assay: biochemical. Particulars: 10 μM, 40 min pre-incubation with 20 μM hCBS, 200-fold dilution. How it is done:
Figure S2. The mode of action of CH004 in inhibiting hCBS. […] After incubation with DMSO or CH004 at 10 μM for 40 min, hCBS (20 μM) was diluted 200-fold and the activity was measured according to the standard assay protocol (Materials and Methods). The data are presented as percentages of control (CTR; DMSO, 100%) and shown as means ± SDs (n = 5). The effects of 0.05 and 10 μM CH004 on hCBS (100 nM) without pre-incubation were defined as positive control (PC) and negative control (NC), respectively. (B) Inhibition of hCBS by CH004 as a function of PLP concentration with Cys (20 mM) together with Hcys (10 mM) as substrates (non-competitive inhibition constant αKi=15.2 ± 4.9 μM). (C) Inhibition of hCBS by CH004 as a function of Cys concentration in the presence of 100 μM PLP and the absence of Hcys (mixed inhibition constant αKi=26.4 ± 8 μM). (D) Inhibition of hCBS by CH004 as a function of Hcys concentration in the presence of 20 mM Cys and 100 μM PLP (mixed inhibition constant αKi’=7.2 ± 1.6 μM). Each point in the Lineweaver-Burk plots represents the means of triplicate. The αKi or αKi’ values were calculated by using the non-linear fitting method for enzyme kinetics in GraphPad Prism 5. (E) Surface Plasmon Resonance assays analysis of the binding of CH004 to hCBS. […] Dissociation constants for CH004 (KD) were calculated by using Biacore evaluation software (Materials and Methods).

For a further assay, the system named is HCT116 cells. Description: cell viability (CellTiter 96 Aqueous One). Type of assay: cell-based. How it is done: (§1) To measure cell viability and cytotoxicity, HepG2, HEK293T, Huh-7, H22, Panc-28, HCT116 and MDA-MB-231 cells were seeded at a density of ~ 2 × 10^4 cells per well in 96-well plates (Coring, NY, USA) for one day, followed by incubation with DMSO or various concentrations of tested compound for indicated times. Then, the cells were collected to measure the cell viability using the CellTiter 96® Aqueous One Solution Cell Proliferation Assay (Promega, G3581) according to the standard protocols.
(§2) Figure S11. The effects of CH004 on cell viability in various types of cancer cell lines. (A) Dose-dependent curves of CH004 on cell viability of HepG2 cells (▲), HEK293T cells (○). Percentages of cell viability of CH004 obtained in Figure 4a were fitted to the non-linear equation using GraphPad Prism 5 to get the IC50 values of CH004 in respective cell lines. Means ± SDs (n=3). […] (B) MDA-MB-231 (breast cancer cell cline), HCT116 (colon cancer), Panc-28 cells (pancreas cancer), Huh7 cells (hepatocellular carcinoma) and H22 (mouse liver cancer) were incubated with DMSO (control) or indicated concentrations of CH004 for 24 h in a 96-well plate before assessing cell viability using the CellTiter96® Aqueous One Solution Cell Proliferation Assay (Promega). The data are shown as percentages of control (DMSO, 100%). Means ± SDs (n=3). (C) The dose-dependent curve of CH004 on cell viability. Percentages of cell viability obtained in B were fitted to the non-linear equation using GraphPad Prism 5 to get the IC50 values of CH004 in respective cell lines. […] The experiments were independently repeated twice in triplicates and a representative experiment is shown.

The test system of another assay is Huh7 cells. Description: cell viability (CellTiter 96 Aqueous One). Type of assay: cell-based. The method, then:
as §1, §2

For the next assay, the system named is MDA-MB-231 cells. Description: cell viability (CellTiter 96 Aqueous One). Type of assay: cell-based. Particulars: Homo sapiens, MDA-MB-231, 24 h. The method, then:
as §1, §2

The subject of a further assay is Panc-28 cells. Description: cell viability (CellTiter 96 Aqueous One). Particulars: 24 h. Type of assay: cell-based. How it is done:
as §1, §2

Regarding `Cn1nc(Cc2ccccc2)nc2c(=O)n(C)c(=O)nc1-2` [CH004, 3-benzyl-1,6-dimethylpyrimido[5,4-e][1,2,4]triazine-5,7(1H,6H)-dione], the “reversibility of binding to hCBS” value at hCBS is reported as “binds reversibly; also recorded: reversibly binds”. Also, the IC50 in the assay on HCT116 cells (24 h) was 4 µM; in the assay on HCT116 cells (Homo sapiens, HCT-116, 24 h), 4.1 ± 1.2 µM; with Huh7 cells (24 h) it was roughly 12 µM; in the assay on Huh7 cells (Homo sapiens, Huh-7, 24 h) it was 12.4 ± 1.6 µM; with MDA-MB-231 cells it was 25.8 ± 3.2 µM; with Panc-28 cells it was 7.2 ± 0.5 µM.
